Measured values as given in patent publication US10407409B2, “6-(5-hydroxy-1H-pyrazol-1-yl)nicotinamide inhibitors of PHD” (Takeda Pharmaceutical Company Limited, priority 2013, dated 2019).

Key:
[1] = tested on: HIF1a protein in H9c2 rat cardiomyocytes; assay: Cell-based HIF-alpha stabilization assay (inhibition of PHD in cells); settings: 24 hrs compound incubation, HIF1a protein by ELISA; for EC50: Rattus norvegicus, H9c2, 24 h, read-out: Inhibition of PHD in cells (pEC50) (converted)
In short: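 Rat H9c2 cardiomyocytes, cultured 24 h, were treated 24 h with an 11-point serial dilution of compound. HIF1a in whole-cell lysates was quantified by ELISA as % of the maximal desferrioxamine response. EC50 came from curve fitting; EC50pos is the concentration reaching 50% of the desferrioxamine maximum.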

[2] = molecular target: PHD2 enzyme (residues 181-417) (Homo sapiens (Human), UniProt Q9GZT9); assay: Inhibition of PHD enzyme (LC/MS peptide hydroxylation assay); assay type: biochemical; settings: PHD2 (residues 181-417) 5 nM, 60 min pre-incubation; -log(IC50), IC50 molar
In short: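 PHD2 (5 nM final) preincubated with inhibitor 60 min at RT in 50 mM HEPES, 50 mM KCl, 0.5 mM TCEP, 2 uM FeCl2, 0.1 mg/ml BSA, pH 7.3. Reaction started with biotin-peptide (1 uM), 2-oxoglutarate (2 uM), ascorbate (1 mM), quenched at 60 min; hydroxylated product by LC/MS, reported as pIC50.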

Chain of PHD2 enzyme (residues 181-417) (Q9GZT9 181-417): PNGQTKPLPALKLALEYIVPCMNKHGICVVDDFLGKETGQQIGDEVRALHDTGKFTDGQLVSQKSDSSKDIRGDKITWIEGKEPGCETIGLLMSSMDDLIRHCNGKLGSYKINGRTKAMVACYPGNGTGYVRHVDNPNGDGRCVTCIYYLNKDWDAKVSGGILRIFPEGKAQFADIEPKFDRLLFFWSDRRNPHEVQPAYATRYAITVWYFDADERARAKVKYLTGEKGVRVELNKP

| SMILES | EC50 [1] | PHD Inhibition (pIC50) [2] | Inhibition of PHD in cells (pEC50) [1] |
| --- | --- | --- | --- |
| Cc1cc(-n2ncc(-c3ccc(C#N)cc3)c2O)ncc1C(=O)N[C@H]1CCOC1 [Example 277, (S)-6-(4-(4-cyanophenyl)-5-hydroxy-1H-pyrazol-1-yl)-4-methyl-N-(tetrahydrofuran-3-yl)nicotinamide] | 7080 nM | 6.89 | – |
| Cc1cc(-n2ncc(-c3ccc(C#N)cc3)c2O)ncc1C(=O)N[C@H]1CC[C@@H](O)CC1 [Example 278, 6-(4-(4-cyanophenyl)-5-hydroxy-1H-pyrazol-1-yl)-N-((1s,4s)-4-hydroxycyclohexyl)-4-methylnicotinamide] | 3240 nM | 7.05 | – |
| Cc1cc(-n2ncc(-c3ccc(C#N)cc3)c2O)ncc1C(=O)NCCC1CCCOC1 (stereo not shown) [Example 279, 6-(4-(4-cyanophenyl)-5-hydroxy-1H-pyrazol-1-yl)-4-methyl-N-(2-(tetrahydro-2H-pyran-3-yl)ethyl)nicotinamide] | 2630 nM | 7.1 | – |
| O=C(NCc1ccccc1)c1ccc(-n2ncc(-c3ccccn3)c2O)cc1 [Example 280, N-benzyl-4-(5-hydroxy-4-(pyridin-2-yl)-1H-pyrazol-1-yl)benzamide] | 50100 nM | 5.69 | – |
| N#Cc1ccc(-c2cnn(-c3ccc(C(=O)NCc4ccccc4)cn3)c2O)cc1 [Example 281, N-benzyl-6-(4-(4-cyanophenyl)-5-hydroxy-1H-pyrazol-1-yl)nicotinamide] | 257 nM | 7.37 | – |
| CCCN1CCN(C(=O)c2ccc(-n3ncc(-c4ccc(C#N)cc4C)c3O)nc2)CC1 [Example 283, 4-(5-hydroxy-1-(5-(4-propylpiperazine-1-carbonyl)pyridin-2-yl)-1H-pyrazol-4-yl)-3-methylbenzonitrile] | – | 8.60 | 5.72 |
| CO[C@H]1CC[C@@H](NC(=O)c2ccc(-n3ncc(-c4ccc(C#N)cc4F)c3O)nc2)CC1 [Example 284, 6-(4-(4-cyano-2-fluorophenyl)-5-hydroxy-1H-pyrazol-1-yl)-N-((1 s,4s)-4-methoxycyclohexyl)nicotinamide] | 1290 nM | 8.21 | – |
| COCCCCNC(=O)c1ccc(-n2ncc(-c3ccc(C#N)cc3F)c2O)nc1 [Example 285, 6-(4-(4-cyano-2-fluorophenyl)-5-hydroxy-1H-pyrazol-1-yl)-N-(4-methoxybutyl)nicotinamide] | 933 nM | 8.48 | – |
| Cc1cc(C#N)ccc1-c1cnn(-c2ccc(C(=O)N(C)CCN(C)C)cn2)c1O [Example 286, 6-(4-(4-cyano-2-methylphenyl)-5-hydroxy-1H-pyrazol-1-yl)-N-(2-(dimethylamino)ethyl)-N-methylnicotinamide] | 603 nM | 7.94 | – |
| Cc1cc(C#N)ccc1-c1cnn(-c2ccc(C(=O)N3CCCN(C)CC3)cn2)c1O [Example 287, 4-(5-hydroxy-1-(5-(4-methyl-1,4-diazepane-1-carbonyl)pyridin-2-yl)-1H-pyrazol-4-yl)-3-methylbenzonitrile] | 3550 nM | 8.10 | – |
| Cc1cc(C#N)ccc1-c1cnn(-c2ccc(C(=O)N(C)C3CCN(C)CC3)cn2)c1O [Example 289, 6-(4-(4-cyano-2-methylphenyl)-5-hydroxy-1H-pyrazol-1-yl)-N-methyl-N-(1-methylpiperidin-4-yl)nicotinamide] | 1230 nM | 8.03 | – |
| Cc1cc(C#N)ccc1-c1cnn(-c2ccc(C(=O)N3CCN(C)CC3)cn2)c1O [Example 290, 4-(5-hydroxy-1-(5-(4-methylpiperazine-1-carbonyl)pyridin-2-yl)-1H-pyrazol-4-yl)-3-methylbenzonitrile] | 912 nM | 8.33 | – |
| Cc1cc(C#N)ccc1-c1cnn(-c2ccc(C(=O)N3CCN(C(C)(C)C)CC3)cn2)c1O [Example 291, 4-(1-(5-(4-(tert-butyl)piperazine-1-carbonyl)pyridin-2-yl)-5-hydroxy-1H-pyrazol-4-yl)-3-methylbenzonitrile] | 977 nM | 8.15 | – |
| Cc1cc(C#N)ccc1-c1cnn(-c2ccc(C(=O)N3C[C@H]4CN(C)C[C@H]4C3)cn2)c1O [Example 292, 4-(5-hydroxy-1-(5-((3aR,6aS)-5-methyloctahydropyrrolo[3,4-c]pyrrole-2-carbonyl)pyridin-2-yl)-1H-pyrazol-4-yl)-3-methylbenzonitrile] | 407 nM | 8.04 | – |
| Cc1cc(C#N)ccc1-c1cnn(-c2ccc(C(=O)N3CCC4(CN(C)C4)C3)cn2)c1O [Example 293, 4-(5-hydroxy-1-(5-(2-methyl-2,6-diazaspiro[3.4]octane-6-carbonyl)pyridin-2-yl)-1H-pyrazol-4-yl)-3-methylbenzonitrile] | 324 nM | 8.05 | – |
| CCCN1CCC(N(C)C(=O)c2ccc(-n3ncc(-c4ccc(C#N)cc4C)c3O)nc2)CC1 [Example 294, 6-(4-(4-cyano-2-methylphenyl)-5-hydroxy-1H-pyrazol-1-yl)-N-methyl-N-(1-propylpiperidin-4-yl)nicotinamide] | 1120 nM | 8.22 | – |
| Cc1cc(C#N)ccc1-c1cnn(-c2ccc(C(=O)N(C)C3CCN(C4CC4)CC3)cn2)c1O [Example 296, 6-(4-(4-cyano-2-methylphenyl)-5-hydroxy-1H-pyrazol-1-yl)-N-(1-cyclopropylpiperidin-4-yl)-N-methylnicotinamide] | 1000 nM | 8.23 | – |
| Cc1cc(C#N)ccc1-c1cnn(-c2ccc(C(=O)N3CC(N(C)C4CCC4)C3)cn2)c1O [Example 297, 4-(1-(5-(3-(cyclobutyl(methyl)amino)azetidine-1-carbonyl)pyridin-2-yl)-5-hydroxy-1H-pyrazol-4-yl)-3-methylbenzonitrile] | 525 nM | 8.39 | – |
| Cc1cc(C#N)ccc1-c1cnn(-c2ccc(C(=O)N3CC(N(C)C4CC4)C3)cn2)c1O [Example 298, 4-(1-(5-(3-(cyclopropyl(methyl)amino)azetidine-1-carbonyl)pyridin-2-yl)-5-hydroxy-1H-pyrazol-4-yl)-3-methylbenzonitrile] | 977 nM | 8.18 | – |
| Cc1cc(C#N)ccc1-c1cnn(-c2ccc(C(=O)N3CCN(C)CC(F)(F)C3)cn2)c1O [Example 299, 4-(1-(5-(6,6-difluoro-4-methyl-1,4-diazepane-1-carbonyl)pyridin-2-yl)-5-hydroxy-1H-pyrazol-4-yl)-3-methylbenzonitrile] | 1050 nM | 8.46 | – |
| COCCCNC(=O)c1ccc(-n2ncc(-c3ccc(C#N)cc3C3CC3)c2O)nc1 [Example 300, 6-(4-(4-cyano-2-cyclopropylphenyl)-5-hydroxy-1H-pyrazol-1-yl)-N-(3-methoxypropyl)nicotinamide] | 17.4 nM | 7.99 | – |
| Cc1cc(C#N)ccc1-c1cnn(-c2ccc(C(=O)N(C)C)cn2)c1O [Example 301, 6-(4-(4-cyano-2-methylphenyl)-5-hydroxy-1H-pyrazol-1-yl)-N,N-dimethylnicotinamide] | 251 nM | 8.67 | – |
| Cc1cc(C#N)ccc1-c1cnn(-c2ccc(C(=O)NC3CCN(CC(F)(F)F)CC3)cn2)c1O [Example 302, 6-(4-(4-cyano-2-methylphenyl)-5-hydroxy-1H-pyrazol-1-yl)-N-(1-(2,2,2-trifluoroethyl)piperidin-4-yl)nicotinamide] | 288 nM | 8.41 | – |
| Cc1cc(C#N)ccc1-c1cnn(-c2ccc(C(=O)N(C)CCCN3CCCCC3)cn2)c1O [Example 303, 6-(4-(4-cyano-2-methylphenyl)-5-hydroxy-1H-pyrazol-1-yl)-N-methyl-N-(3-(piperidin-1-yl)propyl)nicotinamide] | 282 nM | 7.88 | – |
| CN(CCCN1CCCCC1)C(=O)c1ccc(-n2ncc(-c3ccc(C#N)cc3)c2O)nc1 [Example 304, 6-(4-(4-cyanophenyl)-5-hydroxy-1H-pyrazol-1-yl)-N-methyl-N-(3-(piperidin-1-yl)propyl)nicotinamide] | 2820 nM | 7.23 | – |
| CCN1CCN(C(=O)c2ccc(-n3ncc(-c4ccc(C#N)c(F)c4C)c3O)nc2)CC1 [Example 305, 4-(1-(5-(4-ethylpiperazine-1-carbonyl)pyridin-2-yl)-5-hydroxy-1H-pyrazol-4-yl)-2-fluoro-3-methylbenzonitrile] | 1320 nM | 8.27 | – |
| CCN1CCN(C(=O)c2ccc(-n3ncc(-c4cc(F)c(C#N)cc4C)c3O)nc2)CC1 [Example 306, 4-(1-(5-(4-ethylpiperazine-1-carbonyl)pyridin-2-yl)-5-hydroxy-1H-pyrazol-4-yl)-2-fluoro-5-methylbenzonitrile] | 4570 nM | 8.29 | – |
| Cc1c(-c2cnn(-c3ccc(C(=O)N4CCN(C5CC5)CC4)cn3)c2O)ccc(C#N)c1F [Example 307, 4-(1-(5-(4-cyclopropylpiperazine-1-carbonyl)pyridin-2-yl)-5-hydroxy-1H-pyrazol-4-yl)-2-fluoro-3-methylbenzonitrile] | 2340 nM | 8.39 | – |
| Cc1cc(C#N)c(F)cc1-c1cnn(-c2ccc(C(=O)N3CCN(C4CC4)CC3)cn2)c1O [Example 308, 4-(1-(5-(4-cyclopropylpiperazine-1-carbonyl)pyridin-2-yl)-5-hydroxy-1H-pyrazol-4-yl)-2-fluoro-5-methylbenzonitrile] | 6610 nM | 8.28 | – |
